Where two headings read alike, the source gives them in different places.
How the values were obtained:
[1] = biological target: West Nile Virus (WNV) NS2B-NS3 protease (West Nile virus (WNV), UniProt P06935); experiment: WNV Protease Inhibition Assay; format: biochemical
Description: WNV Protease Inhibition Assay

[2] = tested on: ZIKV replicon in Vero cells; experiment: ZIKV Replication Inhibition Assay (replicon, NanoLuc); conditions: 72 h, read-out: Zika Replicon EC50
[3] = 2 nM protease, 10 μM pERTKR-AMC substrate, read-out: WNV Protease IC50

West Nile Virus (WNV) NS2B-NS3 protease, sequence (P06935 1502-1679 limits assumed): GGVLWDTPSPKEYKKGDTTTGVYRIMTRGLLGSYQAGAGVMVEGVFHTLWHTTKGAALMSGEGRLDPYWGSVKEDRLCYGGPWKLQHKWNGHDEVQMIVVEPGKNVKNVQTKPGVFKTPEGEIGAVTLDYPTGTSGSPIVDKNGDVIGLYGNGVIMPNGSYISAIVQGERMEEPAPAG
West Nile Virus (WNV) NS2B-NS3 protease, sequence (P06935 1371-1501 partner limits assumed): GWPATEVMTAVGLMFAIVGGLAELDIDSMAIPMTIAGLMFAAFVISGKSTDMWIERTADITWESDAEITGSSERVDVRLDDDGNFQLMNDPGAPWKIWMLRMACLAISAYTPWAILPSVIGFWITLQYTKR

SMILES	IC50 [1] [nM]	EC50 ([2]; Zika virus, Vero) [nM]	IC50 [1, 3] [nM]	IC50 ([1]; read-out: WNV Protease IC50, 2 nM protease, 10 μM pERTKR-AMC substrate) [nM]	EC50 ([2]; Vero cell line with stable ZIKV replicon, Nano-Glo) [nM]
Cc1ncn(C)c1-c1ccc(C[n+]2cc([N-]C(=O)Nc3cncc(C(F)(F)F)c3)on2)nc1 [Example 140, (3-((5-(1,4-dimethyl-1H-imidazol-5-yl)pyridin-2-yl)methyl)-1,2,3-oxadiazol-3-ium-5-yl)((5-(trifluoromethyl)pyridin-3-yl)carbamoyl)amide]	100 to 1000	1000 to 20000	–	–	–
Cc1ccc(NC(=O)[N-]c2c[n+](Cc3ccc(-c4c(C)noc4C)cn3)no2)cc1C(F)(F)F [Example 158, (3-((5-(3,5-dimethylisoxazol-4-yl)pyridin-2-yl)methyl)-1,2,3-oxadiazol-3-ium-5-yl)((4-methyl-3-(trifluoromethyl)phenyl)carbamoyl)amide]	100 to 1000	< 100	–	–	–
COc1ncncc1-c1ccc(C[n+]2cc([N-]C(=O)Nc3cccc(C(F)(F)F)c3)on2)cc1 [Example 62, (3-(4-(4-methoxypyrimidin-5-yl)benzyl)-1,2,3-oxadiazol-3-ium-5-yl)((3-(trifluoromethyl)phenyl)carbamoyl)amide]	–	100 to 1000	< 100	–	–
Cc1noc(C)c1-c1ccc(C[n+]2cc([N-]C(=O)Nc3cncc(C(F)(F)F)c3)on2)cc1 [Example 127, (3-(4-(3,5-dimethylisoxazol-4-yl)benzyl)-1,2,3-oxadiazol-3-ium-5-yl)((5-(trifluoromethyl)pyridin-3-yl)carbamoyl)amide]	100 to 1000	100 to 1000	–	–	–
Cc1noc(C)c1-c1ccc([C@@H](C)[n+]2cc([N-]C(=O)Nc3ccnc(C(F)(F)F)c3)on2)cc1 [Example 189, (R)-(3-(1-(4-(3,5-dimethylisoxazol-4-yl)phenyl)ethyl)-1,2,3-oxadiazol-3-ium-5-yl)((2-(trifluoromethyl)pyridin-4-yl)carbamoyl)amide]	100 to 1000	100 to 1000	–	–	–
O=C([N-]c1c[n+](Cc2ccc(-c3cncnc3C(F)(F)F)cn2)no1)Nc1ccnc(C(F)(F)F)c1 [Example 177, ((2-(trifluoromethyl)pyridin-4-yl)carbamoyl)(3-((5-(4-(trifluoromethyl)pyrimidin-5-yl)pyridin-2-yl)methyl)-1,2,3-oxadiazol-3-ium-5-yl)amide]	–	100 to 1000	< 100	–	–
Cc1cnn(C)c1-c1ccc(C[n+]2cc([N-]C(=O)Nc3cccc(C(F)(F)F)c3)on2)nc1 [Example 165, (3-((5-(1,4-dimethyl-1H-pyrazol-5-yl)pyridin-2-yl)methyl)-1,2,3-oxadiazol-3-ium-5-yl)((3-(trifluoromethyl)phenyl)carbamoyl)amide]	100 to 1000	< 100	–	–	–
O=C([N-]c1c[n+](Cc2ccc(-c3cncnc3)cc2)no1)Nc1cncc(C(F)(F)F)c1 [Example 57, (3-(4-(pyrimidin-5-yl)benzyl)-1,2,3-oxadiazol-3-ium-5-yl)((5-(trifluoromethyl)pyridin-3-yl)carbamoyl)amide]	–	< 100	< 100	–	–
Cn1cc(-c2ccc(C[n+]3cc([N-]C(=O)Nc4cccc(C(F)(F)F)c4)on3)cc2)cn1 [Example 23, (3-(4-(1-methyl-1H-pyrazol-4-yl)benzyl)-1,2,3-oxadiazol-3-ium-5-yl)((3-(trifluoromethyl)phenyl)carbamoyl)amide]	100 to 1000	100 to 1000	–	–	–
Cc1ncnc(C)c1-c1ccc(C[n+]2cc([N-]C(=O)Nc3cccc(C(F)(F)F)c3)on2)nc1 [Example 130, (3-((5-(4,6-dimethylpyrimidin-5-yl)pyridin-2-yl)methyl)-1,2,3-oxadiazol-3-ium-5-yl)((3-(trifluoromethyl)phenyl)carbamoyl)amide]	–	< 100	< 100	–	–
O=C([N-]c1c[n+](Cc2ccc(-c3ccnc(O)c3)cc2)no1)Nc1cccc(C(F)(F)F)c1 [Example 64, (3-(4-(2-hydroxypyridin-4-yl)benzyl)-1,2,3-oxadiazol-3-ium-5-yl)((3-(trifluoromethyl)phenyl)carbamoyl)amide]	–	100 to 1000	< 100	–	–
Cc1ccncc1-c1ccc(C[n+]2cc([N-]C(=O)Nc3cccc(C(F)(F)F)c3)on2)nc1 [Example 139, (3-((4′-methyl-[3,3′-bipyridin]-6-yl)methyl)-1,2,3-oxadiazol-3-ium-5-yl)((3-(trifluoromethyl)phenyl)carbamoyl)amide]	–	< 100	< 100	–	–
Cc1ncccc1-c1ccc(C[n+]2cc([N-]C(=O)Nc3cncc(C(F)(F)F)c3)on2)nc1 [Example 141, (3-((2′-methyl-[3,3′-bipyridin]-6-yl)methyl)-1,2,3-oxadiazol-3-ium-5-yl)((5-(trifluoromethyl)pyridin-3-yl)carbamoyl)amide]	–	100 to 1000	< 100	–	–
Cc1noc(C)c1-c1cnc(C[n+]2cc([N-]C(=O)Nc3cccc(C(F)(F)F)c3)on2)nc1 [Example 167, (3-((5-(3,5-dimethylisoxazol-4-yl)pyrimidin-2-yl)methyl)-1,2,3-oxadiazol-3-ium-5-yl)((3-(trifluoromethyl)phenyl)carbamoyl)amide]	100 to 1000	< 100	–	–	–
Cc1cnncc1-c1ccc(C[n+]2cc([N-]C(=O)Nc3cncc(C(F)(F)F)c3)on2)nc1 [Example 128, (3-((5-(5-methylpyridazin-4-yl)pyridin-2-yl)methyl)-1,2,3-oxadiazol-3-ium-5-yl)((5-(trifluoromethyl)pyridin-3-yl)carbamoyl)amide]	100 to 1000	1000 to 20000	–	–	–
O=C([N-]c1c[n+](Cc2ccc(-c3cccnc3Cl)cn2)no1)Nc1cccc(C(F)(F)F)c1 [Example 172, (3-((2′-chloro-[3,3′-bipyridin]-6-yl)methyl)-1,2,3-oxadiazol-3-ium-5-yl)((3-(trifluoromethyl)phenyl)carbamoyl)amide]	100 to 1000	< 100	–	–	–
O=C([N-]c1c[n+](Cc2cccc(Br)c2)no1)Nc1cccc(C(F)(F)F)c1 [Example 46, (3-(3-bromobenzyl)-1,2,3-oxadiazol-3-ium-5-yl)((3-(trifluoromethyl)phenyl)carbamoyl)amide]	100 to 1000	1000 to 20000	–	–	–
Cc1noc(C)c1-c1ccc([C@H](C)[n+]2cc([N-]C(=O)Nc3ccnc(C(F)(F)F)c3)on2)cc1 [Example 191, (S)-(3-(1-(4-(3,5-dimethylisoxazol-4-yl)phenyl)ethyl)-1,2,3-oxadiazol-3-ium-5-yl)((2-(trifluoromethyl)pyridin-4-yl)carbamoyl)amide]	–	–	–	100 to 1000	100 to 1000
COc1nccc(C)c1-c1ccc(C[n+]2cc([N-]C(=O)Nc3cccc(C(F)(F)F)c3)on2)nc1 [Example 159, (3-((2′-methoxy-4′-methyl-[3,3′-bipyridin]-6-yl)methyl)-1,2,3-oxadiazol-3-ium-5-yl)((3-(trifluoromethyl)phenyl)carbamoyl)amide]	100 to 1000	< 100	–	–	–
O=C([N-]c1c[n+]([C@@H](Cc2ccccc2)CN2CCCC2)no1)Nc1cccc(C(F)(F)F)c1 [Example 40, (S)-(3-(1-phenyl-3-(pyrrolidin-1-yl)propan-2-yl)-1,2,3-oxadiazol-3-ium-5-yl)((3-(trifluoromethyl)phenyl)carbamoyl)amide]	1000 to 20000	1000 to 20000	–	–	–
C[C@@H](c1ccc(-c2cncnc2)cc1)[n+]1cc([N-]C(=O)Nc2cccc(C(F)(F)F)c2)on1 [Example 74, (S)-(3-(1-(4-(pyrimidin-5-yl)phenyl)ethyl)-1,2,3-oxadiazol-3-ium-5-yl)((3-(trifluoromethyl)phenyl)carbamoyl)amide]	–	100 to 1000	< 100	–	–
Cc1ncnc(C)c1-c1cnc(C[n+]2cc([N-]C(=O)Nc3cccc(C(F)(F)F)c3)on2)nc1 [Example 183, (3-((4′,6′-dimethyl-[5,5′-bipyrimidin]-2-yl)methyl)-1,2,3-oxadiazol-3-ium-5-yl)((3-(trifluoromethyl)phenyl)carbamoyl)amide]	100 to 1000	< 100	–	–	–
Cc1noc(C)c1-c1ccc(C[n+]2cc([N-]C(=O)Nc3cccc(C(F)(F)F)c3)on2)nn1 [Example 173, (3-((6-(3,5-dimethylisoxazol-4-yl)pyridazin-3-yl)methyl)-1,2,3-oxadiazol-3-ium-5-yl)((3-(trifluoromethyl)phenyl)carbamoyl)amide]	–	< 100	< 100	–	–
C[C@H](c1ccc(Br)cc1)[n+]1cc([N-]C(=O)Nc2cccc(C(F)(F)F)c2)on1 [Example 68, (R)-(3-(1-(4-bromophenyl)ethyl)-1,2,3-oxadiazol-3-ium-5-yl)((3-(trifluoromethyl)phenyl)carbamoyl)amide]	1000 to 20000	1000 to 20000	–	–	–
C[C@@H](c1ccc(Br)cc1)[n+]1cc([N-]C(=O)Nc2cccc(C(F)(F)F)c2)on1 [Example 69, (S)-(3-(1-(4-bromophenyl)ethyl)-1,2,3-oxadiazol-3-ium-5-yl)((3-(trifluoromethyl)phenyl)carbamoyl)amide]	1000 to 20000	100 to 1000	–	–	–
O=C([N-]c1c[n+](Cc2ccc(-c3ccnnc3)cn2)no1)Nc1cncc(C(F)(F)F)c1 [Example 145, (3-((5-(pyridazin-4-yl)pyridin-2-yl)methyl)-1,2,3-oxadiazol-3-ium-5-yl)((5-(trifluoromethyl)pyridin-3-yl)carbamoyl)amide]	100 to 1000	1000 to 20000	–	–	–
O=C([N-]c1c[n+](Cc2ccc(-c3cncnc3C(F)(F)F)cn2)no1)Nc1cccc(C(F)(F)F)c1 [Example 131, ((3-(trifluoromethyl)phenyl)carbamoyl)(3-((5-(4-(trifluoromethyl)pyrimidin-5-yl)pyridin-2-yl)methyl)-1,2,3-oxadiazol-3-ium-5-yl)amide]	–	< 100	< 100	–	–
O=C([N-]c1c[n+](Cc2cccc(-c3cncnc3)c2)no1)Nc1cccc(C(F)(F)F)c1 [Example 50, (3-(3-(Pyrimidin-5-yl)benzyl)-1,2,3-oxadiazol-3-ium-5-yl)((3-(trifluoromethyl)phenyl)carbamoyl)amide]	100 to 1000	100 to 1000	–	–	–

— patent publication US20250353853A1, “FLAVIVIRUS INHIBITORS” (IRBM S.P.A., priority 2022, published 2025)
